These results are taken from article PMC7730235, “Discovery of a Novel Class of Covalent Dual Inhibitors Targeting the Protein Kinases BMX and BTK” (International Journal of Molecular Sciences, 2020).

For test [1], the target named is T1, JAK3 (Homo sapiens, UniProt P52333).
T1 construct: purchased Reaction Biology Corporation
T1 sequence (P52333 1-1124): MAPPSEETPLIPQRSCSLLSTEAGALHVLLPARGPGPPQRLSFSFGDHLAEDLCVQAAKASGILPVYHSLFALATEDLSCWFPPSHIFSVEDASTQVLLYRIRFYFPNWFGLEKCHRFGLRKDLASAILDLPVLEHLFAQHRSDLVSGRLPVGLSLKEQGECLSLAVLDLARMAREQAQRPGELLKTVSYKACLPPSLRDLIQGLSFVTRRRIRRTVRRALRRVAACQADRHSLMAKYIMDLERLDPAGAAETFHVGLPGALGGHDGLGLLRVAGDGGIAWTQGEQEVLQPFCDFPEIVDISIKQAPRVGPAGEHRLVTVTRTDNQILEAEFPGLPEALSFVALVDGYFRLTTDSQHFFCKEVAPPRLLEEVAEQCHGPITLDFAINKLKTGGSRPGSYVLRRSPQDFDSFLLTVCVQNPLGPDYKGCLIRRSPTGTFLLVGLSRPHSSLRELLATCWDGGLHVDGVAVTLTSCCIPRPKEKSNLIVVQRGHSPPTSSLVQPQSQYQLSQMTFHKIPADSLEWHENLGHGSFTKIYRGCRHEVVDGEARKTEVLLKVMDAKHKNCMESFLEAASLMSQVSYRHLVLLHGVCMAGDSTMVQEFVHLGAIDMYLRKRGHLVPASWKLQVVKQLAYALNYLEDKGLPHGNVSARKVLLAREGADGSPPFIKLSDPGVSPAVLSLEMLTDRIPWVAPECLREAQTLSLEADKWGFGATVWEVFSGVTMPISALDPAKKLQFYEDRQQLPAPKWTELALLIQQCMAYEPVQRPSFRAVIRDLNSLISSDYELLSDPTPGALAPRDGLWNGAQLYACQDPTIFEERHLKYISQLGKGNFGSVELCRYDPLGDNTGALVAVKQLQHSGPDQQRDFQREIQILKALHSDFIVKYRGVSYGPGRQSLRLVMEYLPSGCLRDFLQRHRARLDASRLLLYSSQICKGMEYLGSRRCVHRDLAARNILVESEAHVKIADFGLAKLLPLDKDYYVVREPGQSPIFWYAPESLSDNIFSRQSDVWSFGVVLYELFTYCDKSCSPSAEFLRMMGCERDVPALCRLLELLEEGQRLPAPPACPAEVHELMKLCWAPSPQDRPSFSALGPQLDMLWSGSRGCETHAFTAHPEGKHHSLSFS
Nature of the test: Radiometric kinase assay (Reaction Biology HotSpot). It counts as biochemical. Particulars: for JAK3 IC50 of nonreactive analogs (not shown): in words, data not shown. As for the experimental part:
(§1) If not mentioned differently, in vitro profiling of compounds was performed at Reaction Biology Corporation using the HotSpot™ assay platform.

For test [2], the target named is T2, Full length BMX (C-terminal NanoLuc fusion) (Homo sapiens, UniProt P51813).
T2 construct: Full length BMX and BTK was cloned into pFC32K; expressed in transfected cells; host or cells: HEK293T
T2 sequence (P51813 1-675): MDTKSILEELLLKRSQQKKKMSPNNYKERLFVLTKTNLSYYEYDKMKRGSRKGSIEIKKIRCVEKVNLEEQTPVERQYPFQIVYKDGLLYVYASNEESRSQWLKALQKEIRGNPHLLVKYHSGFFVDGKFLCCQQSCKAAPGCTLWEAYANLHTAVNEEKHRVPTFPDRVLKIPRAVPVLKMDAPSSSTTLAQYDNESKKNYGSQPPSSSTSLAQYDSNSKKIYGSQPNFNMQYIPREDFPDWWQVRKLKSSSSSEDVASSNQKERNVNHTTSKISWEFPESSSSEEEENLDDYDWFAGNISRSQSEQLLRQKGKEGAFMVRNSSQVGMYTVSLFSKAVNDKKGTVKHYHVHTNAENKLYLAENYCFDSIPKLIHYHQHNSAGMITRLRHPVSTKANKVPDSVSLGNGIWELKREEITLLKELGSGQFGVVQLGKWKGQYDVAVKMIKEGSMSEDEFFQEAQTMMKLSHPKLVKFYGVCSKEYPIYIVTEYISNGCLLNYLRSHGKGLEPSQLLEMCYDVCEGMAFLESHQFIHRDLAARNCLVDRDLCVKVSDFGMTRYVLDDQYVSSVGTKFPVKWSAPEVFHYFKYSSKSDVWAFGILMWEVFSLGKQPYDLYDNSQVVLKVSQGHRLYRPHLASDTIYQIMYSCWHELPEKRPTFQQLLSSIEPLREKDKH
Nature of the test: Cellular NanoBRET target engagement assay in HEK293T cells. It counts as cell-based. Particulars: 0.5 µM Tracer K4, 2 h incubation. As for the experimental part:
(§2) Full length BMX and BTK was cloned into pFC32K (Promega, Madison, WI, USA) for expression of a C-terminal NanoLuc fusion. The plasmids were transfected into HEK293T cells cultured in DMEM (Gibco, Waltham, MA, USA) supplemented with 10% fetal bovine serum (Gibco, Waltham, MA, USA) and Penicillin/Streptamycin (Gibco, Waltham, MA, USA). NanoBRET assays were performed using the protocol published previously. Briefly, after transfection and 20 h incubation cells were harvested and subsequently resuspended in OptiMEM (Gibco, Waltham, MA, USA). Cells were aliquoted onto […] (Greiner, Kremsmünster, Austria), and inhibitors as well as 0.5 µM Tracer K4 (Promega) for BMX or 0.5 µM Tracer K5 (Promega, Madison, WI, USA) for BTK were added using an ECHO acoustic dispenser. The plates were incubated at 37 °C with 5% CO2 for 2 h prior to the addition of both NanoBRET NanoGlo substrate (Promega, Madison, WI, USA) and extracellular NanoLuc inhibitor. BRET luminescence (450 nm for donor emission and 610 nm for BRET signal) was measured using PHERAstar FSX plate reader (BMG Labtech, Ortenberg, Germany). Milli-BRET units (mBU) were calculated as a ratio between BRET signal and the overall measured luminescence. A dose–response fitting was applied and IC50 values were calculated using the Prism software. […] Experiments were performed as tripicates and repeated at least three times.
A general note: Bioluminescence resonance energy transfer reports proximity on the nanometre scale.

In test [3] the target is T3, Full length BTK (C-terminal NanoLuc fusion) (Homo sapiens, UniProt Q06187).
T3 construct: Full length BMX and BTK was cloned into pFC32K; expressed in transfected cells; host or cells: HEK293T
Described as above. The conditions noted are these: 0.5 µM Tracer K5, 2 h incubation. The test is classed as cell-based. As for the experimental part:
as §2

Test [4] has as its target T4, kinase domain of BMX (Homo sapiens, UniProt P51813).
T4 construct: The kinase domains of JAK3 and BMX at 2 μM
Nature of the test: Mass spectrometric investigation of covalent binding to BMX (ESI-TOF). The conditions noted are these: 4 °C; for native (unmodified) BMX fraction, 30 min / native (unmodified) BMX fraction, 60 min / native (unmodified) BMX fraction, 120 min / native (unmodified) BMX fraction, 240 min: 1.5-fold molar excess of inhibitor; for covalent labeling of BMX (in words): 1.5-fold molar excess, complete labeling refers to 30 min. As for the experimental part: The kinase domain of BMX was diluted to 0.05 mM with buffer containing 20 mM Tris pH 8.0, 200 mM NaCl, 0.5 mM TCEP (pH 7.0) and was subsequently mixed with 0.075 mM inhibitors (ratio of protein to inhibitor of 1:1.5). The mixture was incubated at 4°C. The samples were taken at different time points, the reaction stopped by diluting the sample with a 200-fold excess of 1% formic acid. The denatured protein and the adducts were assessed using electrospray time-of-flight (ESI-TOF) mass spectrometry.

Test [5] addresses T4, kinase domain of BMX. Nature of the test: Thermal shift (ΔTm) assay. It counts as binding. Particulars: 2 μM kinase domain, 10 μM inhibitor; mean ± SD of at least three measurements. The method, then: (§3) The kinase domains of JAK3 and BMX at 2 μM were mixed with the inhibitors at 10 μM, and subsequently SyPRO orange dye (Invitrogen Carlsbad, CA, USA) was added. The thermal shift assay and data evaluation were performed as described previously using a Real-Time PCR Mx3005p machine (Stratagene, La Jolla, CA, USA).

For test [6], the target named is T5, kinase domain of JAK3 (Homo sapiens, UniProt P52333).
T5 construct: The kinase domains of JAK3 and BMX at 2 μM; made in house
Nature of the test: Thermal shift (ΔTm) assay. It counts as binding. Particulars: 2 μM kinase domain, 10 μM inhibitor; mean ± SD of at least three measurements. The method, then:
as §3

Test [7] has as its target T6, BMX (Homo sapiens, UniProt P51813).
T6 construct: purchased Reaction Biology Corporation
T6 sequence (P51813 1-675): T2 sequence (P51813 1-675)
Nature of the test: Radiometric kinase assay (Reaction Biology HotSpot). It counts as biochemical. The conditions noted are these: radiometric HotSpot, five-dose singlicate, [ATP] = 10 μM. As for the experimental part: as §1

T3 sequence (Q06187 whole entry, the tested form may be a part): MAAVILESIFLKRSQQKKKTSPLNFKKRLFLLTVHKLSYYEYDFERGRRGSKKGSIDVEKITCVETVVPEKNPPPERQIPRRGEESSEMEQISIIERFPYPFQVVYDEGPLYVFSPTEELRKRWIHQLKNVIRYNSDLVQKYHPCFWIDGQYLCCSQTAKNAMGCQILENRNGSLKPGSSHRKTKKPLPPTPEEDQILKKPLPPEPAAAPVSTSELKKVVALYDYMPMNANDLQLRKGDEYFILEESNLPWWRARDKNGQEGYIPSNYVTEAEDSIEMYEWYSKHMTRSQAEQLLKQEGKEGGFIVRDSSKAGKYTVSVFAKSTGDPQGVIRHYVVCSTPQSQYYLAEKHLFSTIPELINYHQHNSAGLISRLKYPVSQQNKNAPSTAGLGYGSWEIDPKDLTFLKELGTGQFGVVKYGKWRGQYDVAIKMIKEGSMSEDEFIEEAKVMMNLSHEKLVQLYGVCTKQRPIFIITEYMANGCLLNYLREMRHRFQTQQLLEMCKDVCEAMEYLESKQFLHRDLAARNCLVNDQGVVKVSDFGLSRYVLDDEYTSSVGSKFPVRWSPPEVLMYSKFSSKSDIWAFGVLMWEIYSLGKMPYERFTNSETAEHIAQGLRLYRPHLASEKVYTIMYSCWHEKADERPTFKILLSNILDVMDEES

`CCC(=O)Nc1cccc(-c2c[nH]c3ncccc23)c1` [Compound 9b, N-(3-(1H-pyrrolo[2,3-b]pyridin-3-yl)phenyl)propionamide]: the “JAK3 IC50 of nonreactive analogs (not shown)” value in test [1] is recorded as “micromolar range”. In addition, the IC50 (commonly the midpoint of a concentration-inhibition curve) in test [2] is more than 10 µM. The IC50 in test [3] stood at 9.22 ± 3.7 µM. Also, in test [4], the “native (unmodified) BMX fraction, 30 min” value is 100%; the “native (unmodified) BMX fraction, 60 min” value worked out at 100%; the “native (unmodified) BMX fraction, 120 min” value worked out at 100%; the “native (unmodified) BMX fraction, 240 min” value came to 100%. The “covalent labeling of BMX (in words)” value in test [4] was “no modification was detectable”.
Take `c1ccc(-c2c[nH]c3ncccc23)cc1` [Compound 9c, 3-phenyl-1H-pyrrolo[2,3-b]pyridine]: the “JAK3 IC50 of nonreactive analogs (not shown)” value in test [1] is “micromolar range”.
Take `CCC(=O)Nc1cccc(-c2c[nH]c3ncc(C(N)=O)cc23)c1` [Compound 10b, 3-(3-propionamidophenyl)-1H-pyrrolo[2,3-b]pyridine-5-carboxamide]: in test [1], the “JAK3 IC50 of nonreactive analogs (not shown)” value was “micromolar range”. For the same molecule, the IC50 in test [2] was more than 10 µM. Besides, the IC50 in test [3] was more than 10 µM. In test [4], the “native (unmodified) BMX fraction, 30 min” value is given as 100%; the “native (unmodified) BMX fraction, 60 min” value amounted to 100%; the “native (unmodified) BMX fraction, 120 min” value came to 100%; the “native (unmodified) BMX fraction, 240 min” value is 100%. Also, in test [4], the “covalent labeling of BMX (in words)” value was “no modification was detectable”.
With `NC(=O)c1cnc2[nH]cc(-c3ccccc3)c2c1` [Compound 10c, 3-phenyl-1H-pyrrolo[2,3-b]pyridine-5-carboxamide], in test [1], the “JAK3 IC50 of nonreactive analogs (not shown)” value is listed as “micromolar range”.
Consider `C=CC(=O)Nc1cccc(-c2c[nH]c3ncc(C(=O)NC)cc23)c1` [Compound 11c, 3-(3-acrylamidophenyl)-N-methyl-1H-pyrrolo[2,3-b]pyridine-5-carboxamide], for which the ΔTm (in general, the change in melting temperature against a reference sample) at 10 µM in test [5] was 7.84 ± 0.04 °C; in test [6], 10.3 ± 0.37 °C.
For the molecule `C=CC(=O)Nc1cccc(-c2c[nH]c3ncc(C(=O)NCC)cc23)c1` [Compound 11d, 3-(3-acrylamidophenyl)-N-ethyl-1H-pyrrolo[2,3-b]pyridine-5-carboxamide], the ΔTm at 10 µM in test [5] came out at 7.35 ± 0.19 °C; in test [6] it was 10.3 ± 0.26 °C.
Regarding `C=CC(=O)Nc1cccc(-c2c[nH]c3ncc(C(=O)NCC4CC4)cc23)c1` [Compound 11e, 3-(3-acrylamidophenyl)-N-(cyclopropylmethyl)-1H-pyrrolo[2,3-b]pyridine-5-carboxamide], the ΔTm at 10 µM in test [5] is 6.94 ± 0.07 °C; in test [6], 9.64 ± 0.28 °C.
For `C=CC(=O)Nc1cccc(-c2c[nH]c3ncc(C(=O)NCC4CCCCC4)cc23)c1` [Compound 11f, 3-(3-acrylamidophenyl)-N-(cyclohexylmethyl)-1H-pyrrolo[2,3-b]pyridine-5-carboxamide], the results for the ΔTm at 10 µM in test [5] and in test [6] were 3.68 ± 0.13 °C and 5.54 ± 0.82 °C, respectively.
Regarding `C=CC(=O)Nc1cccc(-c2c[nH]c3ncc(C(=O)NCc4ccccc4)cc23)c1` [Compound 11g, 3-(3-acrylamidophenyl)-N-benzyl-1H-pyrrolo[2,3-b]pyridine-5-carboxamide], the ΔTm at 10 µM in test [5] worked out at 6.84 ± 0.23 °C; in test [6], 8.29 ± 1.26 °C.
As for `C=CC(=O)Nc1cccc(-c2c[nH]c3ncc(NC(=O)c4ccco4)cc23)c1` [Compound 12d, N-(3-(3-acrylamidophenyl)-1H-pyrrolo[2,3-b]pyridin-5-yl)furan-2-carboxamide], the IC50 stood at 0.004 µM in test [7] and 1.08 µM in test [1] (radiometric HotSpot, five-dose singlicate, [ATP] = 10 μM). Also, the figures for the ΔTm at 10 µM in test [5] and in test [6] were 10.75 ± 0.09 °C and 9.93 ± 0.12 °C, respectively.
With `C=CC(=O)Nc1cccc(-c2c[nH]c3ncc(NC(=O)c4ccccc4)cc23)c1` [Compound 12e, N-(3-(3-acrylamidophenyl)-1H-pyrrolo[2,3-b]pyridin-5-yl)benzamide], the thermal shift (ΔTm) at 10 µM came to 11.37 ± 0.03 °C in test [5] and 10.9 ± 0.95 °C in test [6].
For the molecule `C=CC(=O)Nc1cccc(-c2c[nH]c3ncc(NC(C)=O)cc23)c1` [Compound 12f, N-(3-(5-acetamido-1H-pyrrolo[2,3-b]pyridin-3-yl)phenyl)acrylamide], the ΔTm at 10 µM in test [5] was found to be 10.6 ± 0.12 °C; in test [6], 13.4 ± 0.43 °C.
For `C=CC(=O)Nc1cccc(-c2c[nH]c3ncc(NC(=O)Cc4ccccc4)cc23)c1` [Compound 12h, N-(3-(5-(2-phenylacetamido)-1H-pyrrolo[2,3-b]pyridin-3-yl)phenyl)acrylamide], the results for the ΔTm at 10 µM in test [5] and in test [6] were 11.9 °C and 12.1 °C, respectively.
